{"source": "patent US20240167005A1", "about": "“MODIFIED SHIGELLA APYRASE AND USES THEREOF” (APIRAYS BIOSCIENCES AB, priority 2021, published 2024)", "key": {"[1]": {"biological_target": "T1, wild-type Shigella flexneri apyrase, SEQ ID NO: 1 (Shigella flexneri, UniProt Q59909)", "T1 sequence (Q59909 26-246)": "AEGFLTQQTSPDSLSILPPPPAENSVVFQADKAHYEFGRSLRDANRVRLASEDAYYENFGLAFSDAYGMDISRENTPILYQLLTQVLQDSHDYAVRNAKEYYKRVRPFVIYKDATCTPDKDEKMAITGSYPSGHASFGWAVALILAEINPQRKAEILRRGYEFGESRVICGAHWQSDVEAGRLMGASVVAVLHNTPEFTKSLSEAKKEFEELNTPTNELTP", "experiment": "ATP hydrolysis, Km for ATP (Example 2), wild type", "assay_type": "biochemical", "settings": "50 mM Tris, pH 7.5, 37° C., 30 min, 700 ng enzyme", "description": "(§1) A titrated series of ATP solutions from 100 mM to 0.01 mM in 50 mM Tris, pH 7.5 were prepared and incubated with 700 ng of Apyrase (mutant prepared in Example 1 and wild-type Shigella flexneri apyrase as control) for 30 minutes at 37° C. (100 μL reaction). After the incubation, 100 μL AMFAS reagent was added and OD was taken at 630 nm using multimode reader (Biotek instruments). The color formation is proportional to the amount of ATP degraded (dephosphorylated to ADP or AMP). […] Specific activity at 10 mM ATP was determined as 6.3 μmoles/min/mg for the mutant apyrase."}, "[2]": {"biological_target": "Shigella flexneri apyrase, mutant apyrase of Example 1, SEQ ID NO: 3 (S50N, F54V, G63R, L66V, N70Q, E77V, A791, D90T, S97T, L108M, Q113N, V120R, K124R, Y127Q, P (Shigella flexneri, UniProt Q59909, A167G/A79I/D90T/E243D/E77V/F162N/F223W/F234Y/F53V/G185A/G206R/G63R/I151L/K124R/K178R/L108M/L182F/L227S/L66V/N174Q/N219K/N70Q/P143R/Q113N/S50N/S97T/T239Q/V120R/V213A/W199Y/Y127Q))", "experiment": "ATP hydrolysis, Km for ATP (Example 2), mutant", "assay_type": "biochemical", "settings": "mutant of Example 1; 50 mM Tris, pH 7.5, 37° C., 30 min, 700 ng enzyme", "description": "In order to improve the activity of apyrase and its tolerance to high salt conditions, the inventors mutated the apyrase gene randomly using an error prone PCR method starting from the wild-type Shigella flexneri apyrase DNA sequence (SEQ ID NO: 4) as template. The method incorporates repeated copying of the template at high MgCl2 concentration (5 mM) with Taq polymerase. After every fourth cycle, one fifth of the reaction mixture was transferred to fresh PCR tube and the same process was repeated 22 times to obtain a product that will have randomly mutated nucleotides which can be identified by sequencing. The mutated gene was cloned in pET21a vector. The mutated DNA sequence obtained is presented as SEQ ID NO: 2, containing a total of 31 mutations leading to amino-acid changes (see SEQ ID NO:3 compared to the wild-type amino-acid sequence of SEQ ID NO: 1).\nas §1, with “instruments).” for “instruments). The color formation is proportional to the amount of ATP degraded (dephosphorylated to ADP or AMP).”"}, "[3]": {"biological_target": "Shigella flexneri apyrase (ApiOne, SEQ ID NO: 1) ApiTwo mutant L66V (Shigella flexneri, UniProt Q59909, L66V)", "experiment": "Affinity towards ATP, L66V", "assay_type": "biochemical", "settings": "50 mM Tris-HCl pH 7.5, 37° C., 20 min, 500 ng enzyme", "text": "However, not all reactions successfully generated PCR products by agarose gel electrophoresis. The successful mutations were transformed into the expression host and proteins were expressed and purified to homogeneity by affinity chromatography.\nOther substrates like 2-Glycerophosphate, Pyridoxal phosphate and phenyl phosphate were not hydrolysed by the mutants (Table 2 and FIG. 8A-B).\n(§2) Respective colorimetric/fluorescence assays (mentioned above)."}, "[4]": {"tested_on": "EIEC apyrase variant H116L", "experiment": "Affinity of ATP to EIEC H116L (Table 6)", "assay_type": "biochemical", "text": "as §2"}, "[5]": {"biological_target": "Shigella flexneri apyrase (ApiOne, SEQ ID NO: 1) Double mutant L66V/G63R (Shigella flexneri, UniProt Q59909, G63R/L66V)", "settings": "read-out: Affinity (Km), ATP, 50 mM Tris-HCl pH 7.5, 37° C., 20 min, 500 ng enzyme", "method": "To this 200 μL of Ammonium Molybdate Ferrous Ammonium Sulphate (AMFAS) reagent was added. AMFAS reagent was prepared by mixing equal volumes of reagent A and reagent B, where reagent A comprises of 5% (w/v) ammonium molybdate in 5 N H2SO4 and reagent B contains 1% (w/v) ferrous ammonium sulphate in double-distilled water. The amount of inorganic phosphate formed (product of ATP/ADP hydrolysis) is colorimetrically measured at 630 nm using multi-mode spectrophotometer (Biotek instruments).\nThe kinetic curves were plotted and the Michaelis Menten constant (Km) was calculated using GraphPad Prism 5.0 software."}}, "data": [{"smiles": "Nc1ncnc2c1ncn2[C@@H]1O[C@H](COP(=O)(O)OP(=O)(O)OP(=O)(O)O)[C@@H](O)[C@H]1O", "note": "[ATP, Adenosine triphosphate]", "values": [{"measurement": "Km", "setting": "[1]", "result": 3300, "unit": "µM"}, {"measurement": "Km", "setting": "[2]", "result": 3600, "unit": "µM"}, {"measurement": "Km", "setting": "[3]", "result": 18.5, "unit": "µM"}, {"measurement": "Km", "setting": "[4]", "result": 24, "unit": "µM"}, {"measurement": "Km", "setting": "[5]", "result": 20.7, "unit": "µM"}]}]}
